Experimental data taken from patent publication US7067524B2, “Substituted phenyl naphthalenes as estrogenic agents” (Wyeth, priority 2001, dated 2006).
Read-outs that look alike come from different tables or passages of the source.

Experiments:
[1] = tested on: metallothionein-II mRNA in Saos-2 cells; assay: Regulation of metallothionein-II mRNA in Saos-2 cells; format: cell-based; design: unit not given here; conditions: column head not given
[2] = tested on: Sexually immature 129 SvE mice; assay: Mouse uterotrophic test procedure (Procedure 2); format: in vivo; conditions: 50 mg/kg/day sc, days 22-25
[3] = tested on: Progesterone receptor mRNA; assay: Progesterone receptor mRNA regulation in the preoptic area of the rat brain; format: in vivo
casein kinase II mRNA = assay: Rat mammotrophic assay (mammary end bud test procedure); format: in vivo; conditions: ovariectomized rats, with progesterone 30 mg/kg
[4] = tested on: Sexually immature Sprague-Dawley rats; assay: Rat uterotrophic test procedure (Procedure 1); format: in vivo
Lewis rats [5] = assay: Lewis rat adjuvant-induced arthritis, inhibition protocol; format: in vivo
Lewis rats [6] = assay: Lewis rat adjuvant-induced arthritis, treatment protocol; format: in vivo; conditions: for Joint inflammation score: 10 mg/kg sc daily from Day 8 after adjuvant
HLA-B27 rats [7] = conditions: for Stool score (group's average score): 2=soft stool, 1=normal stool
HLA-B27 rats [8] = conditions: for Joint inflammation score: 10 mg/kg orally once per day
[9] = Mankin scores, tarsal joints, 10 mg/kg, mean ± SD
[10] = synovitis histology, tarsal joints, 10 mg/kg, mean ± SD
[11] = colon histological score, 10 mg/kg orally for 46 days
[12] = joint histology, 10 mg/kg orally for 46 days

`N#Cc1c(O)ccc2cc(-c3ccc(O)cc3)ccc12` [Example 1s, 2-Hydroxy-6-(4-hydroxyphenyl)-1-naphthonitrile] was tested, and the “Regulation of metallothionein-II mRNA” value [1] was 4.9.
In the case of `Oc1ccc(-c2ccc3c(Br)c(O)ccc3c2)cc1` [Example 1o, 1-Bromo-6-(4-hydroxyphenyl)-2-naphthol], the “Regulation of metallothionein-II mRNA” value [1] is reported as 5.7.
For `Oc1ccc(-c2ccc3c(Cl)c(O)ccc3c2)cc1` [Example 1p, 1-Chloro-6-(4-hydroxyphenyl)-2-naphthol], the “Regulation of metallothionein-II mRNA” value [1] was 6.0.
`Oc1ccc2cc(-c3ccc(O)c(Cl)c3)ccc2c1` [Example 1l, 6-(3-Chloro-4-hydroxyphenol)-2-naphthol] was tested, and the “Regulation of metallothionein-II mRNA” value [1] was 5.5.
In the case of `Oc1ccc(-c2ccc3cc(O)ccc3c2)cc1` [Example 1e, 6-(4-Hydroxyphenyl)-2-naphthol], the “Regulation of metallothionein-II mRNA” value [1] is reported as 17.0.
With `C[C@]12CC[C@@H]3c4ccc(O)cc4CC[C@H]3[C@@H]1CC[C@@H]2O` [17β-estradiol, reference compound] the “mean uterine weight (mg) ± SEM” value [2] was 45.3 ± 1.9 mg, the “Progesterone receptor mRNA (arbitrary units; mean ± stdev)” value ([3]; 30 μg/kg) was 557.1 ± 80.6 arbitrary units and the “Casein kinase II mRNA/18S rRNA (mean ± SEM)” value (casein kinase II mRNA; 0.1 mg/kg sc 6 days) was 39.0 ± 5.4.
`N#Cc1cc(-c2ccc(O)c(F)c2)cc2ccc(O)cc12` [Example 1av, 3-(3-Fluoro-4-hydroxyphenyl)-7-hydroxy-1-naphthonitrile] was tested, and the “mean uterine weight (mg) ± SEM” value ([4]; 2 mg/rat/day coadministered with 17α-ethinyl-17β-estradiol 0.06 μg/rat/day (antagonist mode)) was 81.9 ± 4.2 mg, the “mean uterine weight (mg) ± SEM” value ([4]; 2 mg/rat/day sc, days 19-21) was 23.3 ± 1.3 mg and the “mean uterine weight (mg) ± SEM” value [2] was 12.6 ± 0.8 mg. For the same molecule, the “Progesterone receptor mRNA (arbitrary units; mean ± stdev)” value ([3]; 10 mg/kg) was 33.7 ± 20.6 arbitrary units, the “Casein kinase II mRNA/18S rRNA (mean ± SEM)” value (casein kinase II mRNA; 20 mg/kg sc 6 days) was 1.06 ± 0.17 and the Joint inflammation score (Lewis rats [5]; sc daily from Day 1, Day 1, maximal score 12) was 0.00. It also gave a Joint inflammation score (Lewis rats [5]; sc daily from Day 1, Day 2, maximal score 12) of 0.00, a Joint inflammation score (Lewis rats [5]; sc daily from Day 1, Day 3, maximal score 12) of 2.66 and a Joint inflammation score (Lewis rats [5]; sc daily from Day 1, Day 4, maximal score 12) of 1.83. It also gave a Joint inflammation score (Lewis rats [5]; sc daily from Day 1, Day 5, maximal score 12) of 2.66, a Joint inflammation score (Lewis rats [5]; sc daily from Day 1, Day 6, maximal score 12) of 2.16 and a Joint inflammation score (Lewis rats [5]; sc daily from Day 1, Day 7, maximal score 12) of 2.00. It also gave a Joint inflammation score (Lewis rats [5]; sc daily from Day 1, Day 8, maximal score 12) of 1.66, a Joint inflammation score (Lewis rats [5]; sc daily from Day 1, Day 9, maximal score 12) of 2.00 and a Joint inflammation score (Lewis rats [5]; sc daily from Day 1, Day 10, maximal score 12) of 2.00. The Joint inflammation score (Lewis rats [5]; sc daily from Day 1, Day 11, maximal score 12) was 1.66, the Joint inflammation score (Lewis rats [5]; sc daily from Day 1, Day 12, maximal score 12) was 1.66 and the Joint inflammation score (Lewis rats [5]; sc daily from Day 1, Day 13, maximal score 12) was 2.16. For the same molecule, the Joint inflammation score (Lewis rats [5]; sc daily from Day 1, Day 14, maximal score 12) was 2.00, the Joint inflammation score (Lewis rats [5]; sc daily from Day 1, Day 15, maximal score 12) was 2.00 and the Joint inflammation score (Lewis rats [5]; sc daily from Day 1, Day 16, maximal score 12) was 1.00. It also gave a Joint inflammation score (Lewis rats [5]; sc daily from Day 1, Day 17, maximal score 12) of 1.33, a Joint inflammation score (Lewis rats [6]; Day 1, maximal score 12) of 11.33 and a Joint inflammation score (Lewis rats [6]; Day 2, maximal score 12) of 10.83. For the same molecule, the Joint inflammation score (Lewis rats [6]; Day 3, maximal score 12) was 9.33, the Joint inflammation score (Lewis rats [6]; Day 4, maximal score 12) was 8.00 and the Joint inflammation score (Lewis rats [6]; Day 5, maximal score 12) was 5.83. The Joint inflammation score (Lewis rats [6]; Day 6, maximal score 12) was 3.33, the Joint inflammation score (Lewis rats [6]; Day 7, maximal score 12) was 3.00 and the Joint inflammation score (Lewis rats [6]; Day 8, maximal score 12) was 2.50. For the same molecule, the Joint inflammation score (Lewis rats [6]; Day 9, maximal score 12) was 2.50, the Joint inflammation score (Lewis rats [6]; Day 10, maximal score 12) was 2.50 and the Joint inflammation score (Lewis rats [6]; Day 11, maximal score 12) was 2.50. For the same molecule, the Joint inflammation score (Lewis rats [6]; Day 12, maximal score 12) was 2.50, the Joint inflammation score (Lewis rats [6]; Day 13, maximal score 12) was 2.50 and the Joint inflammation score (Lewis rats [6]; Day 14, maximal score 12) was 2.50. For the same molecule, the Joint inflammation score (Lewis rats [6]; Day 15, maximal score 12) was 2.00, the Joint inflammation score (Lewis rats [6]; Day 16, maximal score 12) was 1.33 and the Joint inflammation score (Lewis rats [6]; Day 17, maximal score 12) was 1.00. The “Cartilage Cells (0–3)” value (Lewis rats [6]; [9]) was 0.75 ± 0.42, the “Cartilage Structure (0–6)” value (Lewis rats [6]; [9]) was 1.83 ± 0.68 and the “Saffranin-O/Fast Green Staining (0–4)” value (Lewis rats [6]; [9]) was 1.25 ± 0.52. For the same molecule, the “Tidemark Integrity (0–1)” value (Lewis rats [6]; [9]) was 0, the “Total Mankin Score (0–14)” value (Lewis rats [6]; [9]) was 3.83 ± 1.21 and the “Fibroplasia (0–3)” value (Lewis rats [6]; [10]) was 0.75 ± 0.42. The “Inflammatory Cells (0–3)” value (Lewis rats [6]; [10]) was 1.25 ± 0.42, the “Pannus (0–1)” value (Lewis rats [6]; [10]) was 0.33 ± 0.61 and the “Synovial Structure (0–3)” value (Lewis rats [6]; [10]) was 1.58 ± 0.38. The “Total Synovitis Score (0–10)” value (Lewis rats [6]; [10]) was 3.83 ± 0.93, the “Time until stool character normalized” value (HLA-B27 rats [7]; 10 mg/kg orally daily) was ≤ 21 days and the “Stool score (group's average score)” value (HLA-B27 rats [7]; 10 mg/kg orally daily, Day 1, 3=diarrhea) was 2.75. For the same molecule, the “Stool score (group's average score)” value (HLA-B27 rats [7]; 10 mg/kg orally daily, Day 2, 3=diarrhea) was 2.5, the “Stool score (group's average score)” value (HLA-B27 rats [7]; 10 mg/kg orally daily, Day 3, 3=diarrhea) was 2.25 and the “Stool score (group's average score)” value (HLA-B27 rats [7]; 10 mg/kg orally daily, Day 4, 3=diarrhea) was 2.5. For the same molecule, the “Stool score (group's average score)” value (HLA-B27 rats [7]; 10 mg/kg orally daily, Day 5, 3=diarrhea) was 2.25, the “Stool score (group's average score)” value (HLA-B27 rats [7]; 10 mg/kg orally daily, Day 6, 3=diarrhea) was 2.5 and the “Stool score (group's average score)” value (HLA-B27 rats [7]; 10 mg/kg orally daily, Day 7, 3=diarrhea) was 2.5. For the same molecule, the “Stool score (group's average score)” value (HLA-B27 rats [7]; 10 mg/kg orally daily, Day 8, 3=diarrhea) was 2, the “Stool score (group's average score)” value (HLA-B27 rats [7]; 10 mg/kg orally daily, Day 9, 3=diarrhea) was 2 and the “Stool score (group's average score)” value (HLA-B27 rats [7]; 10 mg/kg orally daily, Day 10, 3=diarrhea) was 1.5. For the same molecule, the “Stool score (group's average score)” value (HLA-B27 rats [7]; 10 mg/kg orally daily, Day 11, 3=diarrhea) was 1.5, the “Stool score (group's average score)” value (HLA-B27 rats [7]; 10 mg/kg orally daily, Day 12, 3=diarrhea) was 1.5 and the “Stool score (group's average score)” value (HLA-B27 rats [7]; 10 mg/kg orally daily, Day 13, 3=diarrhea) was 1.75. The “Stool score (group's average score)” value (HLA-B27 rats [7]; 10 mg/kg orally daily, Day 14, 3=diarrhea) was 1.75, the “Stool score (group's average score)” value (HLA-B27 rats [7]; 10 mg/kg orally daily, Day 15, 3=diarrhea) was 1.5 and the “Stool score (group's average score)” value (HLA-B27 rats [7]; 10 mg/kg orally daily, Day 16, 3=diarrhea) was 1.5. The “Stool score (group's average score)” value (HLA-B27 rats [7]; 10 mg/kg orally daily, Day 17, 3=diarrhea) was 1.25, the “Stool score (group's average score)” value (HLA-B27 rats [7]; 10 mg/kg orally daily, Day 18, 3=diarrhea) was 1.25 and the “Stool score (group's average score)” value (HLA-B27 rats [7]; 10 mg/kg orally daily, Day 19, 3=diarrhea) was 1.25. The “Stool score (group's average score)” value (HLA-B27 rats [7]; 10 mg/kg orally daily, Day 20, 3=diarrhea) was 1.25, the “Stool score (group's average score)” value (HLA-B27 rats [7]; 10 mg/kg orally daily, Day 21, 3=diarrhea) was 1.25 and the “Stool score (group's average score)” value (HLA-B27 rats [7]; 10 mg/kg orally daily, Day 22, 3=diarrhea) was 1. The “Stool score (group's average score)” value (HLA-B27 rats [7]; 10 mg/kg orally daily, Day 23, 3=diarrhea) was 1, the “Stool score (group's average score)” value (HLA-B27 rats [7]; 10 mg/kg orally daily, Day 24, 3=diarrhea) was 1 and the “Stool score (group's average score)” value (HLA-B27 rats [7]; 10 mg/kg orally daily, Day 25, 3=diarrhea) was 1. For the same molecule, the “Fibrosis (0–2)” value (HLA-B27 rats [7]; [11]) was 0.07 ± 0.13, the “Inflammation (0–3)” value (HLA-B27 rats [7]; [11]) was 1.13 ± 0.43 and the “Lesion depth (0–2)” value (HLA-B27 rats [7]; [11]) was 0.38 ± 0.43. The Total score (HLA-B27 rats [7]; [11]) was 2.00 ± 1.14, the “Ulceration (0–2)” value (HLA-B27 rats [7]; [11]) was 0.44 ± 0.43 and the Joint inflammation score (HLA-B27 rats [8]; Day 29) was 0.5. It also gave a Joint inflammation score (HLA-B27 rats [8]; Day 30) of 0.5, a Joint inflammation score (HLA-B27 rats [8]; Day 31) of 0.5 and a Joint inflammation score (HLA-B27 rats [8]; Day 32) of 1. The Joint inflammation score (HLA-B27 rats [8]; Day 33) was 1.75, the Joint inflammation score (HLA-B27 rats [8]; Day 34) was 1.5 and the Joint inflammation score (HLA-B27 rats [8]; Day 35) was 1. The Joint inflammation score (HLA-B27 rats [8]; Day 36) was 1.75, the Joint inflammation score (HLA-B27 rats [8]; Day 37) was 1.75 and the Joint inflammation score (HLA-B27 rats [8]; Day 38) was 1.5. For the same molecule, the Joint inflammation score (HLA-B27 rats [8]; Day 39) was 0.75, the Joint inflammation score (HLA-B27 rats [8]; Day 40) was 0.75 and the Joint inflammation score (HLA-B27 rats [8]; Day 41) was 0.5. For the same molecule, the Joint inflammation score (HLA-B27 rats [8]; Day 42) was 1.5, the Joint inflammation score (HLA-B27 rats [8]; Day 43) was 1.25 and the Joint inflammation score (HLA-B27 rats [8]; Day 44) was 1.75. For the same molecule, the Joint inflammation score (HLA-B27 rats [8]; Day 45) was 1.25, the Joint inflammation score (HLA-B27 rats [8]; Day 46) was 0.75 and the “Mankin score (mean ± SD)” value (HLA-B27 rats [8]; [12]) was 4.5 ± 1.8. The “Synovitis score (mean ± SD)” value (HLA-B27 rats [8]; [12]) was 5.0 ± 2.5.
